# According to publication PMC7936271, “Discovery and characterization of bromodomain 2–specific inhibitors of BRDT” (Proceedings of the National Academy of Sciences of the …, 2021):
# Where “and” joins values, the source holds several entries; their conditions need not be identical. Equal entries are not always repeated.
# Key:
# various bromodomains = test: BROMOscan bromodomain profiling on various bromodomains; format: binding; conditions: result in words
# Method: 2a) Bromodomain proximity assay. The AlphaScreenTM assay was performed following previous […]
# The plate was read on a Tecan Infinite […]
# the protein thermal shift assay.
# Orange dye at 5 × in a 10- µL reaction.
# Lightcycler 480 real-time PCR instrument.
# 2c) NanoBRET target engagement intracellular BET bromodomain assay. The NanoLuc -BRDT-BD1 […]
# (Promega, USA) to replace the corresponding BRD4 bromodomain sequences. The NanoBRET tracer […]
# The cells were then preincubated with tested
# 2d) Metabolic stability assay in liver microsomes. Compounds 3–10, 15, 17 and 20–2 2 (2.0 μM) were incubated in the mouse or human liver microsomes (0.5 mg protein/mL) at 37 °C. The samples are collected […]
# The reactions are terminated by adding equivalent volume of ice-cold CH3OH and vortexed. […]
# (§1) temperature was ma i ntained at 40 °C.
# (acetonitrile containing 0.1% formic acid).
# 2e) BROMOscan bromodomain profiling. BROMOscan bromodomain profiling was provided by […]
# against a proprietary reference immobilized ligand.
# [1] = Metabolic stability assay in mouse liver microsomes; format: in vitro ADME; conditions: for half-life at 2 μM: read-out: t1/2, min MLM
# Method: (§2) 2d) Metabolic stability assay in liver microsomes. […]
# (§3) The reactions are terminated by adding equivalent
# (§4) volume of ice-cold CH3OH and vortexed.
# as §1
# (§5) (acetonitrile containing 0.1% formic acid). […]
# [2] = Metabolic stability assay in human liver microsomes; format: in vitro ADME; conditions: for half-life at 2 μM: read-out: t1/2, min HLM
# Method: as §2, §3, §4, §1, §5
# BRD2-BD2 [3] = target: T1, BRD2-BD2 (Homo sapiens, UniProt P25440); test: BROMOscan BromoKdELECT competition binding, BRD2-BD2; conditions: BromoKdELECT dose-response; read-out: Binding Constants (Kd), nM BRD2-BD2
# T1 construct: purchased Eurofins DiscoverX Corp
# BRD4-BD1 [4] = target: T2, BRD4-BD1 (Homo sapiens, UniProt O60885); test: AlphaScreen competition assay with biotinylated JQ1, BRD4-BD1; format: binding; conditions: AlphaScreen, biotinylated JQ1 as ligand; NE: no effect at 20 µM
# T2 construct: amino acid 44− 168; made in house; host or cells: E. coli NiCo21 (DE3)
# BRDT-BD2 [5] = target: BRDT-BD2
# BRDT-BD2 [6] = target: T3, BRDT-BD2 (Homo sapiens, UniProt Q58F21); test: AlphaScreen competition assay with biotinylated JQ1, BRDT-BD2; format: binding; parameters: BRDT-BD2, NP_001717.3 amino acid 269− 380; made in house; host or cells: E. coli NiCo21 (DE3); conditions: for BRDT-BD2 vs. BRD4-BD2: ratio of AlphaScreen IC50 values
# BRDT-BD1 [7] = target: T4, BRDT-BD1 (Homo sapiens, UniProt Q58F21); test: AlphaScreen competition assay with biotinylated JQ1, BRDT-BD1; format: binding; conditions: AlphaScreen, biotinylated JQ1 as ligand; NE: no effect at 20 µM
# T4 construct: NP_001717.3 amino acid 21− 137; made in house; host or cells: E. coli NiCo21 (DE3)
# BRD4-BD2 [8] = target: T5, BRD4-BD2 (Homo sapiens, UniProt O60885); test: AlphaScreen competition assay with biotinylated JQ1, BRD4-BD2; format: binding; parameters: BD2, NP_055114.1 amino acid 333− 460; made in house; host or cells: E. coli NiCo21 (DE3)
# BRD3-BD2 [9] = target: T6, BRD3-BD2 (Homo sapiens, UniProt Q15059); test: BROMOscan BromoKdELECT competition binding, BRD3-BD2; conditions: BromoKdELECT dose-response; read-out: Binding Constants (Kd), nM BRD3-BD2
# T6 construct: purchased Eurofins DiscoverX Corp
# BRD4-BD2 [10] = target: BRD4-BD2
# BRD4-BD2 [11] = target: BRD4-BD2; remark: listed apart in the source
# BRD4-BD2 [12] = target: T5, BRD4-BD2; test: BROMOscan BromoKdELECT competition binding, BRD4-BD2; parameters: purchased Eurofins DiscoverX Corp; conditions: BromoKdELECT dose-response; read-out: Binding Constants (Kd), nM BRD4-BD2
# BRDT-BD2 [13] = target: T3, BRDT-BD2; test: BROMOscan BromoKdELECT competition binding, BRDT-BD2; parameters: purchased Eurofins DiscoverX Corp
# BRD2-BD2 [14] = target: BRD2-BD2
# BRDT-BD2 [15] = target: BRDT-BD2; remark: listed apart in the source
# BRD3-BD2 [16] = target: BRD3-BD2
# BRD4-BD1 [17] = target: BRD4-BD1
# BRDT-BD1 [18] = target: BRDT-BD1
# BD2 = system: BD2; parameters: method as in PMID 32193360; conditions: BD2-specific inhibitor; cited from earlier work
# BRD4-BD2 [19] = system: BRD4-BD2; remark: listed apart in the source
# [20] = mice; cited from earlier work
# BRDT-BD1 [21] = system: BRDT-BD1; remark: listed apart in the source
# BRDT-BD2 [22] = system: BRDT-BD2; remark: listed apart in the source
# BRD4-BD1 [23] = system: BRD4-BD1; remark: listed apart in the source
# [24] = mouse liver microsomes, 2.0 μM, 37 °C, data >60 min are an extrapolated estimate
# [25] = human liver microsomes, 2.0 μM, 37 °C, data >60 min are an extrapolated estimate
# [26] = AlphaScreen, biotinylated JQ1 as ligand
# T1 sequence (P25440 344-453 limits assumed): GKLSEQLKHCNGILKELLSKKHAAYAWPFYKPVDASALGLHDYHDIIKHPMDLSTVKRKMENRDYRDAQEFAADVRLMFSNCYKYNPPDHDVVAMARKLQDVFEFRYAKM
# T6 sequence (Q15059 306-415 limits assumed): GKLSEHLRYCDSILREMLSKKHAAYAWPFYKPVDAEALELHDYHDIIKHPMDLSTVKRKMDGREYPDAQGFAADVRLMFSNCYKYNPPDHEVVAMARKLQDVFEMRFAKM
compound,measurement,setting,value
CNC(=O)c1ccc(C(=O)Nc2cc(NC(=O)c3ccc4c(c3)c(-c3ccc(N)cc3C)nn4C)ccc2C)cc1 [Compound 9],BROMOscan bromodomain profile,various bromodomains,very weak binding to two bromodomains outside of the BET subfamily
same,half-life at 2 μM,[1]; [24],1.53 h
same,mouse microsomal stability,[1]; result in words,greater stability in mouse liver microsomes (MLMs) over other hits
same,half-life at 2 μM,[2]; [25],2.5 h
same,human microsomal stability,[2]; result in words,high metabolic stability
CC(=O)Nc1cc(NC(=O)c2ccc3c(c2)c(-c2ccc(N)cc2C)nn3C)ccc1C [Compound 20],Kd,BRD2-BD2 [3],7.8 nM
same,BROMOscan bromodomain profile,various bromodomains,potent and selective binding to only the second bromodomains within the BET subfamily
same,IC50,BRD4-BD1 [4],10400 nM
same,IC50,BRDT-BD2 [5],8 nM
same,BRDT-BD2 vs. BRDT-BD1 (BRDT-BD2 selectivity),BRDT-BD2 [6],"2,000"
same,IC50,BRDT-BD2 [6]; [26],8 nM
same,BRDT-BD2 activity / affinity,"BRDT-BD2 [6]; AlphaScreen, result in words",no loss in activity
same,BRDT-BD2 vs. BRD4-BD2,BRDT-BD2 [6],1.5
same,IC50,BRDT-BD1 [7],15800 nM
same,BRD4-BD2 vs. BRD4-BD1 (BRD4-BD2 selectivity),BRD4-BD2 [8],860
same,IC50,BRD4-BD2 [8]; [26],12 nM
same,Kd,BRD3-BD2 [9],2 nM
same,IC50,BRD4-BD2 [10],12 nM
same,"t1/2, min MLM",[1]; [24],1.2 h
same,Kd,BRD4-BD2 [11],1.6 nM
same,Kd,BRD4-BD2 [12],1.6 nM
same,more potent than JQ1 at binding BRDT-BD2,BRDT-BD2 [13]; BromoKdELECT dose-response curves,more than 20 fold
same,Kd,"BRDT-BD2 [13]; BromoKdELECT dose-response, read-out: Binding Constants (Kd), nM BRDT-BD2",1.3 nM
same,Kd,BRD2-BD2 [14],7.8 nM
same,"t1/2, min HLM",[2]; [25],6.17 h
same,Kd,BRDT-BD2 [15],1.3 nM
same,Kd,BRD3-BD2 [16],2 nM
same,IC50,BRD4-BD1 [17],10400 nM
same,IC50,BRDT-BD1 [18],> 10000 nM and 15800 nM
CC(=O)Nc1c(F)cc(C(=O)N[C@H]2CC[C@H](O)CC2)cc1O[C@@H](C)c1ccccc1 [GSK046],selectivity over BD1,BD2,> 300 fold
"Cc1sc2c(c1C)C(c1ccc(Cl)cc1)=N[C@@H](CC(=O)OC(C)(C)C)c1nnc(C)n1-2 [JQ1, reference compound]",ΔTm at 25 µM,BRD4-BD2 [19],7.43 °C
same,BRDT-BD2 vs. BRD4-BD2,BRDT-BD2 [6],0.4
same,bioavailable across the blood-testis boundary,[20],100%
same,ΔTm at 25 µM,BRDT-BD1 [21],3.48 °C
same,half-life at 2 μM,[1]; [24],0.25 h
same,ΔTm at 25 µM,BRDT-BD2 [22],10.3 °C
same,ΔTm at 25 µM,BRD4-BD1 [23],7.84 °C
same,half-life at 2 μM,[2]; [25],0.1 h
